Laboratory results reported in the supplement of paper PMC10307832.

Assays:
Experiment in all cases: relative viability (nuclei count vs DMSO), 5 days (fraction); higher = more cells survive
NCI-H1355 = tested on: NCI-H1355
In short: (§1)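 Medians of duplicate plates are given as relative viability. That measure is the nuclei count in treated wells divided by the count in vehicle wells. Counts were taken on 4× images of lung cancer cell lines in 1536-well plates, 5 days after pin-tool dosing the day after seeding with one drug alone or a fixed anchor-drug dose plus five library-drug doses (not always all listed) in √10 steps.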

NCI-H650 = tested on: NCI-H650
In short: as §1

PC-3 [JPC-3] = tested on: PC-3 [JPC-3]
In short: as §1

NCI-H358 = tested on: NCI-H358
In short: as §1

SK-MES-1 = tested on: SK-MES-1
In short: as §1

BEN = tested on: BEN
In short: as §1

LU99A = tested on: LU99A
In short: as §1

NCI-H661 = tested on: NCI-H661
In short: as §1

NCI-H1975 = tested on: NCI-H1975
In short: as §1

NCI-H596 = tested on: NCI-H596
In short: as §1

NCI-H1666 = tested on: NCI-H1666
In short: as §1

NCI-H1944 = tested on: NCI-H1944
In short: as §1

LXF-289 = tested on: LXF-289
In short: as §1

LCLC-97TM1 = tested on: LCLC-97TM1
In short: as §1

NCI-H2342 = tested on: NCI-H2342
In short: as §1

NCI-H1651 = tested on: NCI-H1651
In short: as §1

LK-2 = tested on: LK-2
In short: as §1

NCI-H2087 = tested on: NCI-H2087
In short: as §1

HCC-78 = tested on: HCC-78
In short: as §1

LC-2-ad = tested on: LC-2-ad
In short: as §1

ChaGo-K-1 = tested on: ChaGo-K-1
In short: as §1

NCI-H838 = tested on: NCI-H838
In short: as §1

For `CC(=O)O[C@@]12CO[C@@H]1C[C@H](O)[C@@]1(C)C(=O)[C@H](O)C3=C(C)[C@@H](OC(=O)[C@H](O)[C@@H](NC(=O)OC(C)(C)C)c4ccccc4)C[C@@](O)([C@@H](OC(=O)c4ccccc4)[C@H]21)C3(C)C` [Docetaxel] + COc1cc2c(Oc3ccc(NC(=O)C4(C(=O)Nc5ccc(F)cc5)CC4)cc3F)ccnc2cc1OCCCN1CCOCC1 [Foretinib] (partner 0.25 µM), the relative viability (NCI-H1355; first compound 0.0002 µM) was 0.958, the relative viability (NCI-H1355; first compound 0.000632 µM) was 0.886 and the relative viability (NCI-H1355; first compound 0.002 µM) was 0.625. It also gave a relative viability (NCI-H1355; first compound 0.006325 µM) of 0.276, a relative viability (NCI-H1355; first compound 0.02 µM) of 0.243 and a relative viability (NCI-H650; first compound 0.0002 µM) of 0.958. The relative viability (NCI-H650; first compound 0.000632 µM) was 0.921, the relative viability (NCI-H650; first compound 0.002 µM) was 0.299 and the relative viability (NCI-H650; first compound 0.006325 µM) was 0.277. It also gave a relative viability (NCI-H650; first compound 0.02 µM) of 0.218, a relative viability (PC-3 [JPC-3]; first compound 0.0002 µM) of 0.962 and a relative viability (PC-3 [JPC-3]; first compound 0.000632 µM) of 0.945. The relative viability (PC-3 [JPC-3]; first compound 0.002 µM) was 0.544, the relative viability (PC-3 [JPC-3]; first compound 0.006325 µM) was 0.179 and the relative viability (PC-3 [JPC-3]; first compound 0.02 µM) was 0.149. It also gave a relative viability (NCI-H358; first compound 0.0002 µM) of 0.66, a relative viability (NCI-H358; first compound 0.000632 µM) of 0.217 and a relative viability (NCI-H358; first compound 0.006325 µM) of 0.122. It also gave a relative viability (NCI-H358; first compound 0.02 µM) of 0.0708, a relative viability (SK-MES-1; first compound 0.0002 µM) of 0.84 and a relative viability (SK-MES-1; first compound 0.000632 µM) of 0.923. For the same compound, the relative viability (SK-MES-1; first compound 0.002 µM) was 0.508, the relative viability (SK-MES-1; first compound 0.006325 µM) was 0.368 and the relative viability (SK-MES-1; first compound 0.02 µM) was 0.168. It also gave a relative viability (BEN; first compound 0.0002 µM) of 0.625, a relative viability (BEN; first compound 0.000632 µM) of 0.926 and a relative viability (BEN; first compound 0.002 µM) of 0.606. The relative viability (BEN; first compound 0.006325 µM) was 0.285, the relative viability (BEN; first compound 0.02 µM) was 0.197 and the relative viability (LU99A; first compound 0.0002 µM) was 0.718. It also gave a relative viability (LU99A; first compound 0.000632 µM) of 0.794, a relative viability (LU99A; first compound 0.002 µM) of 0.486 and a relative viability (LU99A; first compound 0.006325 µM) of 0.393. For the same compound, the relative viability (LU99A; first compound 0.02 µM) was 0.259, the relative viability (NCI-H661; first compound 0.0002 µM) was 0.989 and the relative viability (NCI-H661; first compound 0.000632 µM) was 1.02. It also gave a relative viability (NCI-H661; first compound 0.002 µM) of 0.982, a relative viability (NCI-H661; first compound 0.006325 µM) of 0.509 and a relative viability (NCI-H661; first compound 0.02 µM) of 0.496. It also gave a relative viability (NCI-H1975; first compound 0.0002 µM) of 0.907, a relative viability (NCI-H1975; first compound 0.000632 µM) of 0.586 and a relative viability (NCI-H1975; first compound 0.002 µM) of 0.353. The relative viability (NCI-H1975; first compound 0.02 µM) was 0.105, the relative viability (NCI-H596; first compound 0.0002 µM) was 0.901 and the relative viability (NCI-H596; first compound 0.000632 µM) was 0.51. The relative viability (NCI-H596; first compound 0.002 µM) was 0.419, the relative viability (NCI-H596; first compound 0.006325 µM) was 0.365 and the relative viability (NCI-H596; first compound 0.02 µM) was 0.217. The relative viability (NCI-H1666; first compound 0.0002 µM) was 0.853, the relative viability (NCI-H1666; first compound 0.000632 µM) was 0.628 and the relative viability (NCI-H1666; first compound 0.002 µM) was 0.633. For the same compound, the relative viability (NCI-H1666; first compound 0.006325 µM) was 0.614, the relative viability (NCI-H1666; first compound 0.02 µM) was 0.372 and the relative viability (NCI-H1944; first compound 0.0002 µM) was 0.85. For the same compound, the relative viability (NCI-H1944; first compound 0.000632 µM) was 0.86, the relative viability (NCI-H1944; first compound 0.002 µM) was 0.692 and the relative viability (NCI-H1944; first compound 0.006325 µM) was 0.31. For the same compound, the relative viability (NCI-H1944; first compound 0.02 µM) was 0.151, the relative viability (LXF-289; first compound 0.0002 µM) was 0.977 and the relative viability (LXF-289; first compound 0.000632 µM) was 0.924. The relative viability (LXF-289; first compound 0.002 µM) was 0.207, the relative viability (LXF-289; first compound 0.006325 µM) was 0.147 and the relative viability (LXF-289; first compound 0.02 µM) was 0.0982. The relative viability (LCLC-97TM1; first compound 0.0002 µM) was 0.846, the relative viability (LCLC-97TM1; first compound 0.000632 µM) was 0.641 and the relative viability (LCLC-97TM1; first compound 0.002 µM) was 0.697. For the same compound, the relative viability (LCLC-97TM1; first compound 0.006325 µM) was 0.218, the relative viability (LCLC-97TM1; first compound 0.02 µM) was 0.146 and the relative viability (NCI-H2342; first compound 0.0002 µM) was 1.17. For the same compound, the relative viability (NCI-H2342; first compound 0.000632 µM) was 0.948, the relative viability (NCI-H2342; first compound 0.002 µM) was 0.638 and the relative viability (NCI-H2342; first compound 0.006325 µM) was 0.661. It also gave a relative viability (NCI-H2342; first compound 0.02 µM) of 0.502, a relative viability (NCI-H1651; first compound 0.0002 µM) of 0.795 and a relative viability (NCI-H1651; first compound 0.000632 µM) of 0.789. For the same compound, the relative viability (NCI-H1651; first compound 0.002 µM) was 0.238, the relative viability (NCI-H1651; first compound 0.006325 µM) was 0.128 and the relative viability (NCI-H1651; first compound 0.02 µM) was 0.107. The relative viability (LK-2; first compound 0.0002 µM) was 1.02, the relative viability (LK-2; first compound 0.000632 µM) was 0.948 and the relative viability (LK-2; first compound 0.002 µM) was 0.348. For the same compound, the relative viability (LK-2; first compound 0.006325 µM) was 0.188, the relative viability (LK-2; first compound 0.02 µM) was 0.14 and the relative viability (NCI-H2087; first compound 0.0002 µM) was 0.955. For the same compound, the relative viability (NCI-H2087; first compound 0.000632 µM) was 0.477, the relative viability (NCI-H2087; first compound 0.002 µM) was 0.249 and the relative viability (NCI-H2087; first compound 0.006325 µM) was 0.115. It also gave a relative viability (NCI-H2087; first compound 0.02 µM) of 0.105, a relative viability (HCC-78; first compound 0.0002 µM) of 0.634 and a relative viability (HCC-78; first compound 0.000632 µM) of 0.493. The relative viability (HCC-78; first compound 0.002 µM) was 0.461, the relative viability (HCC-78; first compound 0.006325 µM) was 0.42 and the relative viability (HCC-78; first compound 0.02 µM) was 0.34. It also gave a relative viability (LC-2-ad; first compound 0.0002 µM) of 0.882, a relative viability (LC-2-ad; first compound 0.000632 µM) of 0.494 and a relative viability (LC-2-ad; first compound 0.002 µM) of 0.441. The relative viability (LC-2-ad; first compound 0.006325 µM) was 0.395, the relative viability (ChaGo-K-1; first compound 0.0002 µM) was 0.89 and the relative viability (ChaGo-K-1; first compound 0.000632 µM) was 0.824. It also gave a relative viability (ChaGo-K-1; first compound 0.002 µM) of 0.439, a relative viability (ChaGo-K-1; first compound 0.006325 µM) of 0.329 and a relative viability (ChaGo-K-1; first compound 0.02 µM) of 0.174. It also gave a relative viability (NCI-H838; first compound 0.0002 µM) of 0.98, a relative viability (NCI-H838; first compound 0.000632 µM) of 1.03 and a relative viability (NCI-H838; first compound 0.002 µM) of 0.262. It also gave a relative viability (NCI-H838; first compound 0.006325 µM) of 0.283 and a relative viability (NCI-H838; first compound 0.02 µM) of 0.162.
